≈ marks a conversion by molar mass, not a printed value.
What was measured:
Assay type in all cases: functional
[1] = system: Candida albicans; test: Antibacterial activity against Candida albicans 90023 assessed as inhibition of bacterial growth
[2] = system: Pseudomonas aeruginosa; test: Antibacterial activity against Pseudomonas aeruginosa 27853 assessed as inhibition of bacterial growth by two fold serial dilution method
[3] = system: Klebsiella pneumoniae; test: Antibacterial activity against Klebsiella pneumoniae assessed as inhibition of bacterial growth by two fold serial dilution method
[4] = system: Enterococcus faecalis; test: Antibacterial activity against Enterococcus faecalis assessed as inhibition of bacterial growth by two fold serial dilution method
[5] = system: Klebsiella pneumoniae; test: Bactericidal activity against Klebsiella pneumoniae assessed as fold increase in MIC value after 16 passages by two fold serial dilution method
[6] = system: Staphylococcus aureus; test: Antibacterial activity against Staphylococcus aureus assessed as inhibition of bacterial growth by two fold serial dilution method
[7] = system: Escherichia coli; test: Antibacterial activity against Escherichia coli 25922 assessed as inhibition of bacterial growth by two fold serial dilution method
[8] = system: Staphylococcus aureus; test: Antibacterial activity against Staphylococcus aureus 25923 assessed as inhibition of bacterial growth by two fold serial dilution method
[9] = system: Acinetobacter baumannii; test: Antibacterial activity against Acinetobacter baumannii assessed as inhibition of bacterial growth by two fold serial dilution method
[10] = system: Acinetobacter baumannii; test: Bactericidal activity against Acinetobacter baumannii assessed as fold increase in MIC value after 16 passages by two fold serial dilution method
[11] = system: Staphylococcus aureus; test: Antibacterial activity against methicillin-resistant Staphylococcus aureus N315 assessed as inhibition of bacterial growth by two fold serial dilution method
[12] = system: Staphylococcus aureus; test: Antibacterial activity against Staphylococcus aureus 29213 assessed as inhibition of bacterial growth by two fold serial dilution method
[13] = system: Pseudomonas aeruginosa; test: Antibacterial activity against Pseudomonas aeruginosa assessed as inhibition of bacterial growth by two fold serial dilution method
[14] = system: Escherichia coli; test: Antibacterial activity against Escherichia coli assessed as inhibition of bacterial growth by two fold serial dilution method

SMILES	MIC [1] [µM]	MIC [2] [µg/mL]	MIC [3] [µg/mL]	MIC [4] [µg/mL]	fold change (FC) [5]	MIC [6] [µg/mL]	MIC [7] [µg/mL]	MIC [8] [µg/mL]	MIC [9] [µg/mL]	fold change (FC) [10]	MIC [11] [µg/mL]	MIC [12] [µg/mL]	MIC [13] [µg/mL]	MIC [14] [µg/mL]
O=c1nc(N(Cc2ccc(Cl)c(Cl)c2)CC(O)(Cn2cncn2)c2ccc(F)cc2F)c(F)c[nH]1 (centres undefined)	8 (≈ 4.2 µg/mL)													
CCn1cc(C(=O)O)c(=O)c2cc(F)c(N3CCNCC3)cc21 [NORFLOXACIN]		0.5 (≈ 1.57 µM)	4 (≈ 12.5 µM)	4 (≈ 12.5 µM)	32	2 (≈ 6.26 µM)	8 (≈ 25.1 µM)	1 (≈ 3.13 µM)	8 (≈ 25.1 µM)	32	16 (≈ 50.1 µM)	2 (≈ 6.26 µM)	2 (≈ 6.26 µM)	16 (≈ 50.1 µM)
